Measurements reported in patent US7858650B2, “Medicinal composition for inhalation” (Ono Pharmaceutical Co., Ltd., priority 2004, dated 2010).

What was measured:
Format in all cases: in vivo
[1] = Hypotensive effect of a sustained prodrug of EP2 agonist (blood pressure after intratracheal administration); settings: guinea pig, blood pressure measured for 12.5 minutes after administration, FIGS. 6 and 8
Protocol: (§1) (3) Bronchodilator Effect and Hypotensive Effect of a Sustained Prodrug of EP2 Agonist
(§2) A guinea pig anesthetized with sodium pentobarbital (50 mg/kg, i.p.) was treated with gallamine (10 mg/kg, i.v.), and an experiment was carried out under artificial respiration. As an airway contraction inducing substance, methacholine (10 μg/kg, i.v.) was used, and the airway contractile response was determined by the Konzett & Roessler method. Compound B was dissolved in an equimolar amount of sodium hydroxide and diluted with a physiological saline solution. Compound F was suspended in a physiological saline solution containing 2% ethanol and 10% Tween 80 to prepare a test substance. The test substance was intratracheally administered using a tube for intratracheal administration. After the administration of the test substance, the blood pressure and the airway contractile response were measured for 12.5 minutes and 3 hours, respectively. A ratio of airway contraction (%) was calculated by taking the airway response obtained by closing a three-way stopcock attached to an upper part of a cannula inserted into the tracheal tube of the guinea pig as 100% contraction. The amount of blood pressure reduction (mmHg) was expressed based on the blood pressure before administration of the test substance.

[2] = system: methacholine-induced airway contractile response; assay: Effect of intratracheal administration on methacholine-induced airway contractile response; settings: guinea pig, methacholine 10 μg/kg i.v.
Protocol: (2) Effect of Compound of the Present Invention by Intratracheal Administration on Methacholine-Induced Airway Contractile Response in Guinea Pig
A test substance was intratracheally administered to a guinea pig anesthetized with GOI (laughing gas:oxygen=3:1, 3% isoflurane) using a tube for intratracheal administration. After a certain period of time, the guinea pig was anesthetized with sodium pentobarbital (50 mg/kg, i.p.) and treated with gallamine (10 mg/kg, i.v.). Then, the resulting airway contractile response was determined under artificial respiration. As an airway contraction inducing substance, methacholine (10 μg/kg, i.v.) was used, and the airway contractile response was determined by the Konzett & Roessler method. A ratio of airway contraction (% of maximum) was calculated by taking the airway response obtained by closing a three-way stopcock attached to an upper part of a cannula inserted into the tracheal tube of the guinea pig as 100%.

[3] = system: methacholine-induced airway contractile response; assay: Bronchodilator effect of a sustained prodrug of EP2 agonist (methacholine-induced airway contraction, intratracheal); settings: guinea pig, intratracheal administration, methacholine 10 μg/kg i.v., airway contractile response measured for 3 hours; FIGS. 7 and 9
Protocol: as §1, §2

[4] = system: histamine-induced airway contractile response; assay: Inhibitory activity on histamine-induced airway contractile response and hypotensive activity, intravenous or inhalation administration; settings: anesthetized guinea pig, histamine 10 μg/kg i.v.; inhalation (5 minutes, nebulizer) versus intravenous administration; FIG. 1
Protocol: (1) Inhibitory Activity on Histamine-Induced Airway Contractile Response and Hypotensive Activity of Intravenous Administration or Inhalation Administration in Guinea Pig
A guinea pig anesthetized with sodium pentobarbital (75 mg/kg, i.p.) was treated with gallamine (10 mg/kg, i.v.), and an experiment was carried out under artificial respiration. As an airway contraction inducing substance, histamine (10 μg/kg, i.v.) was used, and the airway contractile response was determined by the Konzett & Roessler method (Konzett, H., Roessler, R. Versuchsanordnung zu untersuchungen ander Bronchial-muskulatur. Arch Exp Pathol Pharmacol 1940; 195:71-74). Additionally, the blood pressure was also measured at the same time. A test substance was administered intravenously or by inhalation (the test substance or a physiological saline solution was atomized using an ultrasonic nebulizer and inhaled directly into the trachea for 5 minutes using an artificial respirator). An inhibition ratio of airway contraction (%) was calculated by taking the airway contraction induced by histamine before administration of the test substance or in a group administered with a physiological saline solution as 0% inhibition. The amount of blood pressure reduction (mmHg) was expressed as the amount of diastolic blood pressure reduction. […] From this, it was shown that the pharmaceutical composition for inhalation of the present invention has an inhibitory effect on airway contraction and its hypotensive effect is small.

SMILES	duration of activity (bronchodilator effect), comparison ([2]; FIGS. 2 to 5)	dissociation between the inhibitory effect on airway contraction and the hypotensive effect [4]	other results
CCCCCCCCCCCOC(=O)c1csc(SCCN2C(=O)CC[C@@H]2COc2cc(Cl)cc(Cl)c2)n1 [Compound F, undecyl 2-[(2-{(2R)-2-[(3,5-dichlorophenoxy)methyl]-5-oxopyrrolidin-1-yl}ethyl)sulfanyl]-1,3-thiazole-4-carboxylate]	more prolonged duration of activity compared with Compound F	–	change of blood pressure (hypotensive effect) [1]: did not change the blood pressure; duration of bronchodilator activity, comparison [3]: prolonged duration of bronchodilator activity compared with Compound B
O=C(O)c1csc(SCCN2C(=O)CC[C@@H]2COc2cccc(OC(F)(F)F)c2)n1 [Compound D, 2-{[2-((5R)-2-oxo-5-{[3-(trifluoromethoxy)phenoxy]methyl}pyrrolidin-1-yl)ethyl]sulfanyl}-1,3-thiazole-4-carboxylic acid]	–	became larger by inhalation administration than by intravenous administration	–
CCC1([C@@H](O)C/C=C/[C@H]2CCC(=O)N2CCSc2nc(C(=O)O)cs2)CCC1 [Compound A, 2-[(2-{(2R)-2-[(1E,4S)-4-(1-ethylcyclobutyl)-4-hydroxybut-1-enyl]-5-oxopyrrolidin-1-yl}ethyl)sulfanyl]-1,3-thiazole-4-carboxylic acid]	–	became larger by inhalation administration than by intravenous administration	–
O=C(O)c1csc(SCCN2C(=O)CC[C@@H]2COc2cccc(C(F)(F)F)c2Cl)n1 [Compound C, 2-{[2-((2R)-2-{[2-chloro-3-(trifluoromethyl)phenoxy]methyl}-5-oxopyrrolidin-1-yl)ethyl]sulfanyl}-1,3-thiazole-4-carboxylic acid]	–	became larger by inhalation administration than by intravenous administration	–
CCCCOC(=O)c1csc(SCCN2C(=O)CC[C@@H]2COc2cc(Cl)cc(Cl)c2)n1 [Compound E, butyl 2-[(2-{(2R)-2-[(3,5-dichlorophenoxy)methyl]-5-oxopyrrolidin-1-yl}ethyl)thio]-1,3-thiazole-4-carboxylate]	more prolonged duration of activity compared with Compound B	–	–
O=C(O)c1csc(SCCN2C(=O)CC[C@@H]2COc2cc(Cl)cc(Cl)c2)n1 [Compound B, 2-[(2-{(2R)-2-[(3,5-dichlorophenoxy)methyl]-5-oxopyrrolidin-1-yl}ethyl)thio]-1,3-thiazole-4-carboxylic acid]	–	became larger by inhalation administration than by intravenous administration	time after administration at which the bronchodilator effect was lost ([2]; FIG. 2): around 3 hours; bronchodilator effect ([2]; FIGS. 2 to 5): has a bronchodilator effect
O=C(OCCCCCCCCCCc1ccccc1)c1csc(SCCN2C(=O)CC[C@@H]2COc2cc(Cl)cc(Cl)c2)n1 [Compound G, 10-phenyldecyl 2-[(2-{(2R)-2-[(3,5-dichlorophenoxy)methyl]-5-oxopyrrolidin-1-yl}ethyl)sulfanyl]-1,3-thiazole-4-carboxylate]	more prolonged duration of activity compared with Compound F	–	–
